The text below walks through data of US20180353512A1, “COMBINATION THERAPIES FOR TREATING B-CELL MALIGNANCIES” (GILEAD SCIENCES, INC., priority 2015, published 2018).

What all share (type): cell-based
The test system of one test is U2973 cells. Description: ATPLite anti-proliferation assay (GI) and synergy score, 120 h. As for the experimental part:
(§1) The endpoint readout of the anti-proliferation assay was based upon quantitation of ATP as an indicator of viable cells. Cells were thawed from a liquid nitrogen preserved state. Once cells had been expanded and divided at their expected doubling times, screening began. Cells were seeded in growth media in black 384-well tissue culture treated plates at 500 cells per well (except where noted in Analyzer). Cells were equilibrated in assay plates via centrifugation and placed in incubators attached to the Dosing Modules at 37° C. for twenty-four hours before treatment. […] These Tzero (T0) plates were read using ultra-sensitive luminescence on Envision Plate Readers. Treated assay plates were incubated with the compound for one hundred twenty hours. After one hundred twenty hours, plates were developed for endpoint analysis using ATPLite. All data points were collected via automated processes; quality controlled; and analyzed using Horizon CombinatoRx proprietary software. Assay plates were accepted if they pass the following quality control standards: relative luciferase values were consistent throughout the entire experiment, Z-factor scores were greater than 0.6, untreated/vehicle controls behaved consistently on the plate.
(§2) Horizon Discovery utilized Growth Inhibition (GI) as a measure of cell viability. The cell viability of vehicle was measured at the time of dosing (T0) and after one hundred twenty hours (T120). A GI reading of 0% represented no growth inhibition—cells treated with compound and T120 vehicle signals were matched. […] A GI 200% represents complete death of all cells in the culture well. Compounds reaching an activity plateau of GI 200% were considered cytotoxic. Horizon CombinatoRx calculates GI by applying the following test and equation: […]
(§3) To measure combination effects in excess of Loewe additivity, Horizon Discovery has devised a scalar measure to characterize the strength of synergistic interaction termed the Synergy Score. The Synergy Score was calculated as:
(§4) Synergy Score=log fx log fyΣmax(0,Idata)(Idata−ILoewe)
(§5) The fractional inhibition for each component agent and combination point in the matrix was calculated relative to the median of all vehicle-treated control wells. The Synergy Score equation integrated the experimentally-observed activity volume at each point in the matrix in excess of a model surface numerically derived from the activity of the component agents using the Loewe model for additivity. Additional terms in the Synergy Score equation (above) were used to normalize for various dilution factors used for individual agents and to allow for comparison of synergy scores across an entire experiment. The inclusion of positive inhibition gating or an Idata multiplier removed noise near the zero effect level, and biased results for synergistic interactions at that occur at high activity levels.
(§6) The cell viability of vehicle was measured at the time of dosing (T0) and after 120 h (T120). […] To measure combination effects, excess of Loewe additivity was used to characterize the strength of synergistic interaction, termed the synergy score. The assay and synergy score analysis were performed in accordance with the protocol set forth in Example 1B above.
(§7) The assay and synergy score analysis were performed in accordance with the protocol set forth in Example 3A above.
Background: ATP-based viability assays read luminescence as a measure of living cells.

For the next test, the system named is HBL-1 cells. The description is as above. The protocol:
as §1, §2, §3, §4, §5, §6, §7

The test system of the next test is OCI-Ly3 cells. The test is described as above. The protocol:
as §1, §2, §3, §4, §5, §6, §7

Another test relates to SU-DHL-10 cells. The description is as above. The protocol:
as §1, §2, §3, §4, §5, §6, §7

The subject of another test is Ri-1 cells. Described as above. The protocol:
as §1, §2, §3, §4, §5, §6, §7

Another test relates to U2932 cells. Described as above. The protocol: as §1, §2, §3, §4, §5, §6, §7
In a further test the test system is SU-DHL-6 cells. The description is as above. As for the experimental part:
as §1, §2, §3, §4, §5, §6, §7

Another test relates to SU-DHL-8 cells. The description is as above. As for the experimental part:
as §1, §2, §3, §4, §5, §6, §7

A further test has as its system pAKT (Ser 473). Description: TMD-8 Western Blots. Conditions: for pAKT (Ser 473), Western Blot: TMD-8. The protocol:
Western Blot samples were prepared by lysing 10^6 cells for 30 minutes in 150 μL ice-cold lysis buffer. Protease Inhibitor Cocktail (Roche Diagnostics Corp), and phosphatase inhibitor sets 1 and 2 (EMD Millipore) were also added to the lysis buffer (Cell Signaling Technology). Cells were centrifuged at 12.5 g for 10 minutes at 4° C.; supernatant was collected and transferred to new tube. Sample buffer was added to each lysate, and then boiled at 99° C. for 5 minutes. Protein was loaded into an SDS-PAGE gel and run for 2 h at 125V. After electrophoresis, gel was transferred to Immobilon-F membrane using the X Cell Blot. The membrane was then blocked for 1 h at room temperature in blocking buffer and incubated overnight with primary antibodies diluted in a blocking buffer. The following day, the membranes were washed 3× (5 min each) with TBST; secondary antibodies were added and membrane was incubated for 45 minutes at room temperature, followed by 3×TBST (5 min each). Blots were read using Licor Imager. Primary antibodies included p-AKT (S473), p-BTK (Y223), BTK, p-ERK (T202/Y204), ERK, and actin (Cell Signaling Technologies), and secondary antibodies included IRDye-conjugated anti-mouse and anti-rabbit antibodies; LI-COR. Band intensity was measured using LI-COR imager and LI-COR Odyssey software.

For test [1], the system named is TMD8^S (DMSO passage matched, idelalisib-sensitive line). As to the kind of experiment: CellTiter-Glo viability assay at 96 h. Conditions: for cell growth: FIG. 23A. The protocol: Growth inhibition to Idelalisib or other inhibitors was assessed using CellTiter-Glo viability assay at 96 h. […] Cell lines were analyzed by whole exome sequencing, RNASeq, and phosphoproteomics. Protein expression was measured using Simple Western and SDS/PAGE and western blot. Caspase 3/7 was measured using Caspase-Glo 3/7 assay; apoptosis was measured with Annexin V assay and propidium iodide by flow cytometry.
Cell viability EC50 was determined using a sigmoidal dose-response (variable slope) curve generated from quadruplicate samples. Statistical significance was determined using the student's t-test for cell viability and two-tailed paired t-test for apoptosis experiments in Prism (GraphPad).
Idelalisib-resistant (TMD8^R) cell line and passage-matched Idelalisib-sensitive (TMD8^S) cell line were generated according to the procedure described in Example 5 above. To characterize the resistant cells, cell viability assays, RNASeq of multidrug resistance (MDR) family of ABC transporter genes (N=33), apoptosis assays, and phosphoprotein analysis were performed. Cell viability was measured using CellTiter-Glo, as described in Example 1A above. Western blot and protein level analysis were performed after treatment with 420 nM idelalisib, 320 nM Compound B and combination thereof, using Peggy Sue (ProteinSimple) automated Western Blot system. Protein concentration (pg/μL) was quantitated using recombinant protein standards. Normalized AUC were determined for each of the treatment groups, normalized to actin. Apoptosis was assessed by propidium iodide and Annexin V/FITC staining and measured by flow cytometry, as described in Example 1A above. Western Blot with anti-p-AKT (S473) antibody and Peggy Sue were used to determine the phosphorylation state of downstream signaling components.

Setting [2] is: Homo sapiens, TMD8, FIG. 2E, single agent, idelalisib 420 nM, Compound B 320 nM, time not stated, read-out: inhibition to p-AKT (S473).

Where two headings read alike, the source gives them in different places.

As usually defined, the inhibition is the percentage by which the read-out fell short of the control. As usually defined, the EC50 is the concentration needed to bring the measured effect to its halfway point. Take `CC#CC(=O)N1CC[C@@H](n2c(=O)n(-c3ccc(Oc4ccccc4)cc3)c3c(N)ncnc32)C1` [Compound B, 6-amino-9-[(3R)-1-(2-butynoyl)-3-pyrrolidinyl]-7-(4-phenoxyphenyl)-7,9-dihydro-8H-purin-8-one]: the “Max. Effect (% GI)” value in the test with U2973 cells worked out at 14 % GI; in the test with HBL-1 cells it was 65 % GI; with OCI-Ly3 cells it was 0 % GI; in the test with SU-DHL-10 cells, 0 % GI; in the test on Ri-1 cells, 48 % GI; in the test with U2932 cells, 81 % GI. In addition, the “Max. Effect (% GI)” value was found to be 24 % GI in the test with SU-DHL-6 cells and 1 % GI in the test on SU-DHL-8 cells. Besides, the inhibition at 0.32 µM in the test with pAKT (Ser 473) (setting [2]) worked out at 46%. Moreover, the “pAKT (Ser 473), Western Blot” value in the test with pAKT (Ser 473) (2 hr, DMSO 0.45) is given as 0.24 normalized integrated intensity; with pAKT (Ser 473) (24 hr, DMSO 0.54) it was 0.35 normalized integrated intensity. In addition, in [1], the “cell growth” value is listed as “inhibited cell growth”. Besides, the EC50 in [1] (unit inferred, read-out: EC50, cell viability) was 1.2 nM.
With `CCC(Nc1ncnc2[nH]cnc12)c1nc2cccc(F)c2c(=O)n1-c1ccccc1` (stereo not drawn) [Idelalisib, 2-(1-((9H-Purin-6-yl)amino)propyl)-5-fluoro-3-phenylquinazolin-4(3H)-one], the “Max. Effect (% GI)” value in the test on U2973 cells is on record as 85 % GI; in the test on HBL-1 cells it was 29 % GI; in the test with OCI-Ly3 cells, 20 % GI; with SU-DHL-10 cells, 0 % GI; in the test with Ri-1 cells, 78 % GI; in the test with U2932 cells, 61 % GI. The “Max. Effect (% GI)” value with SU-DHL-6 cells is 110 % GI; with SU-DHL-8 cells, 43 % GI. Also, the inhibition at 0.42 µM in the test on pAKT (Ser 473) (setting [2]) was determined as 58%. Moreover, the “pAKT (Ser 473), Western Blot” value with pAKT (Ser 473) (2 hr, DMSO 0.45) is 0.19 normalized integrated intensity; in the test on pAKT (Ser 473) (24 hr, DMSO 0.54), 0.12 normalized integrated intensity. For the same compound, the EC50 in test [1] (Example 7, read-out: EC50, cell viability) came out at 220 nM. In addition, in test [1], the “cell growth” value is “inhibited cell growth”. In addition, the inhibition at 1 µM in [1] (at 1 μM, read-out: Growth inhibition) turned out to be 92%.
